Patent US8563714B2, “Bridged spiro [2.4] heptane derivatives as ALX receptor and/or FPRL2 agonists” (Actelion Pharmaceuticals Ltd., priority 2009, dated 2013)

Key:
human FPRL2 = target: T1, human FPRL2 (Homo sapiens, UniProt P25089); experiment: Intracellular calcium measurements (FLIPR), agonistic activity in HEK293-hFPRL2-Gα16 cells; format: cell-based; settings: Fluo-4 calcium FLIPR, normalized to GLY14-Humanin 100 nM
T1 construct: expressed in transfected cells; host or cells: HEK293 (HEK293-hFPRL2-Gα16)
T1 sequence (P25089 1-353): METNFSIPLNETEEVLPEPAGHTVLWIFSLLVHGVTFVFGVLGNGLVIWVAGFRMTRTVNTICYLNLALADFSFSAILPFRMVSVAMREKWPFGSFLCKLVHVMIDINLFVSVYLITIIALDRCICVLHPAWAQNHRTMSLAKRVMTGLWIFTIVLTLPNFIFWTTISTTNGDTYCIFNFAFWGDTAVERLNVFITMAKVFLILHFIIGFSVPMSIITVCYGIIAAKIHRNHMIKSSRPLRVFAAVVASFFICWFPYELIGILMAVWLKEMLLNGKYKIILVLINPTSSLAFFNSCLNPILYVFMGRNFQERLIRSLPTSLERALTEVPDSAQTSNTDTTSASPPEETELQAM
Summary of the method: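 Peak values after baseline subtraction are expressed relative to 100 nM Gly14-Humanin; compounds diluted in assay buffer from 10 mM DMSO stocks.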

human ALX receptor = target: T2, human ALX receptor (Homo sapiens, UniProt P25090); experiment: Intracellular calcium measurements (FLIPR), agonistic activity in HEK293-hALXR-Gα16 cells; format: cell-based; settings: Fluo-4 calcium FLIPR, normalized to WKYMVm 10 nM
T2 construct: expressed in transfected cells; host or cells: HEK293 (HEK293-hALXR-Gα16)
T2 sequence (P25090 1-351): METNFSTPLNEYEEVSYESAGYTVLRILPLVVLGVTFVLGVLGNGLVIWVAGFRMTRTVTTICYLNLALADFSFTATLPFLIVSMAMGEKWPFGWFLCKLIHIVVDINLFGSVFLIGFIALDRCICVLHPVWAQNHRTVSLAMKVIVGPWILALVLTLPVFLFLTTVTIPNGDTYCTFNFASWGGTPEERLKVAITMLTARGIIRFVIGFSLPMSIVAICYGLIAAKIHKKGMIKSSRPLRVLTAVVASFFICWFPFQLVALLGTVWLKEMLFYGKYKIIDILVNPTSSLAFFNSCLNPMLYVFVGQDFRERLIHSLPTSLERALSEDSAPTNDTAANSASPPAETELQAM
Summary of the method: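 HEK293 cells expressing hALXR and Gα16 were loaded with 1 μM Fluo-4 AM and 20 mM HEPES for 60 min at 37°C, then exposed to serially diluted compound. FLIPR fluorescence was read at ex 488/em 540 nm. Baseline-subtracted peak responses were normalized to 10 nM WKYMVm.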

Structure (SMILES) | EC50 (human FPRL2) | EC50 (human ALX receptor)
NCCCCCNC(=O)[C@H]1[C@H](C(=O)NCc2ccc(Br)cc2F)[C@@H]2C=C[C@H]1C21CC1 [Example 319, (5R)—N^5-(4-Bromo-2-fluorophenyl-methyl)-(6R)—N^6-(5-amino-pentyl)-(4S,7R)-[4,7-ethenylene-spiro[2.4]heptane]-5,6-dicarboxamide] | 331 nM | 55 nM
CC(=O)c1csc(CNC(=O)[C@H]2[C@H](C(=O)NCCN(C)C)[C@H]3C=C[C@@H]2C32CC2)n1 (racemic) [Example 266, (5R*)—N^5-(4-Acetyl-thiazol-2-yl-methyl)-(6R*)—N^6-(2-dimethylamino-ethyl)-(4S*,7R*)-[4,7-ethenylene-spiro[2.4]heptane]-5,6-dicarboxamide] | 1210 nM | 65 nM
O=C(NC[C@H]1[C@H](C(=O)Nc2ccc(Br)cc2)[C@@H]2C=C[C@H]1C21CC1)c1ccnn1-c1ccccc1 (racemic) [Example 169, (5R*)—N^5-(4-Bromo-phenyl)-(6R*)-6-{[(1-phenyl-1H-pyrazole-5-carbonyl)-amino]-methyl}-(4S*,7R*)-[4,7-ethenylene-spiro[2.4]heptane]-5-carboxamide] | 1790 nM | 112 nM
CNCCNC(=O)[C@H]1[C@H](C(=O)NCc2nc(C(C)=O)cs2)[C@@H]2C=C[C@H]1C21CC1 (racemic) [Example 396, (5R*)—N^5-[(4-Acetyl-thiazol-2-yl)methyl]-(6R*)—N^6-(2-methylamino-ethyl)-(4S*,7R*)-[4,7-ethenylene-spiro[2.4]heptane]-5,6-dicarboxamide] | 872 nM | 1040 nM
CC(=O)c1csc(CNC(=O)[C@H]2[C@H](C(=O)NCCC(N)=O)[C@H]3C=C[C@@H]2C32CC2)n1 (racemic) [Example 261, (5R*)—N^5-(4-Acetyl-thiazol-2-yl-methyl)-(6R*)—N^6-(3-amino-3-oxopropyl)-(4S*,7R*)-[4,7-ethenylene-spiro[2.4]heptane]-5,6-dicarboxamide] | > 25000 nM | 297 nM
CC(C)(C)OC(=O)NCCCCNC(=O)[C@H]1[C@H](C(=O)Nc2ccc(Br)cc2)[C@@H]2C=C[C@H]1C21CC1 (racemic) [Example 46, (5R*)—N^5-(4-Bromophenyl)-(6R*)—N^6-(4-tert-butoxycarbonyl-amino-butyl)-(4S*,7R*)-[4,7-ethenylene-spiro[2.4]heptane]-5,6-dicarboxamide] | 1600 nM | 11 nM
CN1CCN(CCCNC(=O)[C@H]2[C@H](C(=O)NCc3ccc(Br)cc3)[C@@H]3C=C[C@H]2C32CC2)CC1 (racemic) [Example 273, (5R*)—N^5-(4-Bromophenyl-methyl)-(6R*)—N^6-(3-(4-methylpiperazin-1-yl)-propyl)-(4S*,7R*)-[4,7-ethenylene-spiro[2.4]heptane]-5,6-dicarboxamide] | 432 nM | 213 nM
O=C(NC1CCN(Cc2ccccc2)CC1)[C@H]1[C@H](C(=O)Nc2ccc(Br)cc2)[C@@H]2C=C[C@H]1C21CC1 (racemic) [Example 83, (5R*)—N^5-(4-Bromophenyl)-(6R*)—N^6—(N-benzyl-piperidin-4-yl)-(4S*,7R*)-[4,7-ethenylene-spiro[2.4]heptane]-5,6-dicarboxamide] | 678 nM | 123 nM
NCc1ccc(CNC(=O)[C@H]2[C@H](C(=O)NCc3ccc(Br)cc3)[C@@H]3C=C[C@H]2C32CC2)cc1 (racemic) [Example 309, (5R*)—N^5-(4-Bromophenyl-methyl)-(6R*)—N^6-(4-(aminomethyl)phenyl-methyl)-(4S*,7R*)-[4,7-ethenylene-spiro[2.4]heptane]-5,6-dicarboxamide] | 1340 nM | 367 nM
O=C(NCC1CCCN1)C1C(C(=O)Nc2ccc(Br)cc2)C2C=CC1C21CC1 (mixture of isomers) [Example 18, (5R*)—N^5-(4-Bromophenyl)-(6R*)—N^6-(2-pyrrolidinyl-methyl)-(4S*,7R*)-[4,7-ethenylene-spiro[2.4]heptane]-5,6-dicarboxamide] | 551 nM | 2 nM
Cc1nn(C)c(Cl)c1C(=O)NC[C@H]1[C@H](C(=O)Nc2ccc(Br)cc2)[C@@H]2C=C[C@H]1C21CC1 (racemic) [Example 190, (5R*)—N^5-(4-Bromo-phenyl)-(6R*)-6-{[(5-chloro-1,3-dimethyl-1H-pyrazole-4-carbonyl)-amino]-methyl}-(4S*,7R*)-[4,7-ethenylene-spiro[2.4]heptane]-5-carboxamide] | 1700 nM | 963 nM

Further lines, results first:

EC50 (human FPRL2) | EC50 (human ALX receptor) | Structure (SMILES)
489 nM | 40 nM | Cc1cc(CNC(=O)[C@H]2[C@H](C(=O)NCCCCN3CCCC3)[C@H]3C=C[C@@H]2C32CC2)no1 (racemic) [Example 255, (5R*)—N^5-(5-Methyl-isoxazol-3-yl-methyl)-(6R*)—N^6-(4-pyrrolidin-1-yl-butyl)-(4S*,7R*)-[4,7-ethenylene-spiro[2.4]heptane]-5,6-dicarboxamide]
714 nM | 9120 nM | O=C(NCCCCN1CCCC1)[C@H]1[C@H](C(=O)Nc2cccc3nonc23)[C@@H]2C=C[C@H]1C21CC1 (racemic) [Example 151, (5R*)—N^5-(Benzo[2,1,3]oxadiazol-4-yl)-(6R*)—N^6-(4-pyrrolidin-1-yl-butyl)-(4S*,7R*)-[4,7-ethenylene-spiro[2.4]heptane]-5,6-dicarboxamide]
355 nM | 463 nM | Cc1cnc(NC(=O)[C@H]2[C@H](C(=O)NCCCCN3CCCC3)[C@H]3C=C[C@@H]2C32CC2)s1 (racemic) [Example 193, (5R*)—N^5-(5-Methyl-thiazol-2-yl)-(6R*)—N^6-(4-pyrrolidin-1-yl-butyl)-(4S*,7R*)-[4,7-ethenylene-spiro[2.4]heptane]-5,6-dicarboxamide]
204 nM | > 25000 nM | COc1ccccc1CCNC(=O)[C@H]1[C@H](C(=O)NCCCCN2CCCC2)[C@H]2C=C[C@@H]1C21CC1 (racemic) [Example 158, (5R*)—N^5-(2-(2-Methoxy-phenyl)-ethyl)-(6R*)—N^6-(4-pyrrolidin-1-yl-butyl)-(4S*,7R*)-[4,7-ethenylene-spiro[2.4]heptane]-5,6-dicarboxamide]
1440 nM | 93 nM | CC(C)Cc1cc(CNC(=O)[C@H]2[C@H](C(=O)NCCCCN3CCCC3)[C@H]3C=C[C@@H]2C32CC2)no1 (racemic) [Example 201, (5R*)—N^5-(5-(iso-Butyl)-isoxazol-3-yl-methyl)-(6R*)—N^6-(4-pyrrolidin-1-yl-butyl)-(4S*,7R*)-[4,7-ethenylene-spiro[2.4]heptane]-5,6-dicarboxamide]
647 nM | 28 nM | CC(=O)c1ccc(CNC(=O)[C@H]2[C@H](C(=O)NCCCCN3CCCC3)[C@H]3C=C[C@@H]2C32CC2)o1 [Example 195, (5R)—N^5-(5-Acetyl-furan-2-yl-methyl)-(6R)—N^6-(4-pyrrolidin-1-yl-butyl)-(4S,7R)-[4,7-ethenylene-spiro[2.4]heptane]-5,6-dicarboxamide]
165 nM | 1740 nM | O=C(NCCCCN1CCCC1)[C@H]1[C@H](C(=O)NCCC2=CCCCC2)[C@@H]2C=C[C@H]1C21CC1 (racemic) [Example 341, (5R*)—N^5-(2-(Cyclohexen-1-yl)ethyl)-(6R*)—N^6-(4-pyrrolidino-butyl)-(4S*,7R*)-[4,7-ethenylene-spiro[2.4]heptane]-5,6-dicarboxamide]
389 nM | > 25000 nM | CC(C)Oc1ccccc1CNC(=O)[C@H]1[C@H](C(=O)NCCCCN2CCCC2)[C@H]2C=C[C@@H]1C21CC1 (racemic) [Example 372, (5R*)—N^5-(2-Isopropoxyphenyl-methyl)-(6R*)—N^6-(4-pyrrolidino-butyl)-(4S*,7R*)-[4,7-ethenylene-spiro[2.4]heptane]-5,6-dicarboxamide]
176 nM | 7980 nM | Cc1cc(C)cc(CNC(=O)[C@H]2[C@H](C(=O)NCCCCN3CCCC3)[C@H]3C=C[C@@H]2C32CC2)c1 (racemic) [Example 358, (5R*)—N^5-(3,5-Dimethylphenyl-methyl)-(6R*)—N^6-(4-pyrrolidino-butyl)-(4S*,7R*)-[4,7-ethenylene-spiro[2.4]heptane]-5,6-dicarboxamide]
837 nM | 7410 nM | O=C(NCCCCN1CCCC1)[C@H]1[C@H](C(=O)Nc2ccc3[nH]ccc3c2)[C@@H]2C=C[C@H]1C21CC1 (racemic) [Example 147, (5R*)—N^5-(1H-Indol-5-yl)-(6R*)—N^6-(4-pyrrolidin-1-yl-butyl)-(4S*,7R*)-[4,7-ethenylene-spiro[2.4]heptane]-5,6-dicarboxamide]
